Source: patent EP0311163A2, “Use of site-specific modified lipolytic enzymes for the selective hydrolysis of organized lipid structures” (DUPHAR INTERNATIONAL RESEARCH B.V, priority 1987, dated 1989)

Experiments:
Assay in all cases: Kinetic measurement with micellar L-dioctanoyl-lecithin (Vmax)
Format in all cases: biochemical
Conditions in all cases: micellar substrate, titration of fatty acid with 10.3 mM NaOH at pH 6.0
[1] = molecular target: T1, Bovine pancreatic phospholipase A₂ (PLA), native (Bos taurus, UniProt P00593)
T1 construct: pancreatic pro-PLA's can be purified and converted into the corresponding PLA's; from tissue; host or cells: bovine pancreas
T1 sequence (P00593 23-145): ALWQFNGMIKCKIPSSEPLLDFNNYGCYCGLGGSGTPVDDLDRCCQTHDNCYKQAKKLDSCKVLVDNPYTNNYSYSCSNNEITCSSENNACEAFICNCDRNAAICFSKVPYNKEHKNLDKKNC
Method: (§1) […]. A value of 8.8 is used for the N-terminal shortened bovine pancreas enzyme fragments missing Trp³. • b. The binding of the PLA's to micellar cis-9-octadecenyl phosphocholine is determined by means of UV absorption difference spectroscopy (De Aranjo et al., Biochem. 18, (1979), 580-586;; and Hille et al., Biochem. 20, (1981), 4068-4073). • c. Monolayer experiments are carried out using the zero order through with two compartments and the surface barostat technique for measuring phospholipid hydrolysis (Verger and De Haas, Chem. Phys. Lipids, 10, (1973), 127-136). Calculation of the induction time (τ) is carried out as described by Verger et al. J. Biol. Chem. 248 (1973), 4023-4034). Surface tension (π) is measured by means of the plate method by Wilhelmy using a thin platinum plate attached to a Beckman R II C Model LM 600 microbalance. • d. Kinetic measurements with micellar diC₈PC are carried out according to De Haas et al, Biochem. Biophys. Acta, 239, (1971) 252-266.
(§2) This means that the inherent catalytic activity of these pPLA's is not affected by the site-specific acylation. Although acylation of Lys¹¹⁶ with acetyl or maleyl results in a lower Vmax, the remaining activity is sufficient to hydrolyse micellar short chain lecithins effectively. TABLE A

[2] = molecular target: T2, Bovine pancreatic phospholipase A₂, AMPA (fully ε-amidinated PLA) (Bos taurus, UniProt P00593)
T2 construct: fully ε-amidinated according to the method by Wallace and Harris, Biochem. J., 217, (1984), 589-594, and converted into AMPA; from tissue; host or cells: bovine pancreas; chemically amidinated as the pro-enzyme, then converted to the active enzyme
T2 sequence (P00593 23-145): as above
Method: as §1, §2

[3] = molecular target: T3, Bovine pancreatic phospholipase A₂, [Arg⁶,ε-Pal-Lys¹⁰]-AMPA (Bos taurus, UniProt P00593, N28R)
T3 construct: Conversion of fully ε-amidinated bovine pancreatic AMPrec in [Arg⁶, ε-Pal-Lys¹⁰]-AMPA; from tissue; host or cells: bovine pancreas; semisynthetic: amidinated fragment 11-123 re-elongated with Pal-Lys, Ile, Met and Ala.Leu.Trp.Gln.Phe.Arg.Gly
T3 sequence (P00593 23-145 N28R): as the sequence (P00593 23-145) above, with N6R counted along it
Method: as §1, §2

[4] = molecular target: T4, Bovine pancreatic phospholipase A₂, [Arg⁶]-AMPA (Bos taurus, UniProt P00593, N28R)
T4 construct: fully ε-amidinated according to the method by Wallace and Harris, Biochem. J., 217, (1984), 589-594, and converted into AMPA; from tissue; host or cells: bovine pancreas
T4 sequence (P00593 23-145 N28R): as the sequence (P00593 23-145) above, with N6R counted along it
Method: as §1, §2

[5] = molecular target: T5, Porcine pancreatic phospholipase A₂ (PLA), native (Sus scrofa, UniProt P00592)
T5 construct: pancreatic pro-PLA's can be purified and converted into the corresponding PLA's; from tissue; host or cells: pig pancreas
T5 sequence (P00592 23-146): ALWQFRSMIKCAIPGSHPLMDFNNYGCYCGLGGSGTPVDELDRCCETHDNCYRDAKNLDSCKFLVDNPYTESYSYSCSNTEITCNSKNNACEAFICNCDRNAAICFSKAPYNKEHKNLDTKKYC
Method: as §1, §2

[6] = molecular target: T6, Porcine pancreatic phospholipase A₂, AMPA (fully ε-amidinated PLA) (Sus scrofa, UniProt P00592)
T6 construct: fully ε-amidinated according to the method by Wallace and Harris, Biochem. J., 217, (1984), 589-594, and converted into AMPA; from tissue; host or cells: pig pancreas; chemically amidinated as the pro-enzyme, then converted to the active enzyme
T6 sequence (P00592 23-146): as above
Method: as §1, §2

[7] = system: Porcine pancreatic phospholipase A₂, [ε-Ac-Lys¹¹⁶]AMPA
Method: as §1, §2

[8] = system: Porcine pancreatic phospholipase A₂, [ε-Cap-Lys¹¹⁶]AMPA
Method: as §1, §2

[9] = system: Porcine pancreatic phospholipase A₂, [ε-Lau-Lys¹¹⁶]AMPA
Method: as §1, §2

[10] = system: Porcine pancreatic phospholipase A₂, [ε-Mal-Lys¹¹⁶]AMPA
Method: as §1, §2

[11] = system: Porcine pancreatic phospholipase A₂, [ε-NH₂-Lys¹¹⁶]AMPA
Method: as §1, §2

[12] = system: Porcine pancreatic phospholipase A₂, [ε-Ol-Lys¹¹⁶]AMPA
Method: as §1, §2

[13] = system: Porcine pancreatic phospholipase A₂, [ε-Pal-Lys¹¹⁶]AMPA
Method: as §1, §2

CCCCCCCC(=O)OC[C@H](COP(=O)([O-])OCC[N+](C)(C)C)OC(=O)CCCCCCC [L-dioctanoyl-lecithin, 1,2-dioctanoyl-sn-glycero-3-phosphocholine]
Vmax micellar L-dioctanoyl-lecithin [1]: 3000 µequiv. min⁻¹ mg⁻¹
Vmax micellar L-dioctanoyl-lecithin [2]: 2300 µequiv. min⁻¹ mg⁻¹
Vmax micellar L-dioctanoyl-lecithin [3]: 5600 µequiv. min⁻¹ mg⁻¹
Vmax micellar L-dioctanoyl-lecithin [4]: 5900 µequiv. min⁻¹ mg⁻¹
Vmax micellar L-dioctanoyl-lecithin [5]: 2200 µequiv. min⁻¹ mg⁻¹
Vmax micellar L-dioctanoyl-lecithin [6]: 1650 µequiv. min⁻¹ mg⁻¹
Vmax micellar L-dioctanoyl-lecithin [7]: 755 µequiv. min⁻¹ mg⁻¹
Vmax micellar L-dioctanoyl-lecithin [8]: 2100 µequiv. min⁻¹ mg⁻¹
Vmax micellar L-dioctanoyl-lecithin [9]: 2500 µequiv. min⁻¹ mg⁻¹
Vmax micellar L-dioctanoyl-lecithin [10]: 405 µequiv. min⁻¹ mg⁻¹
Vmax micellar L-dioctanoyl-lecithin [11]: 2000 µequiv. min⁻¹ mg⁻¹
Vmax micellar L-dioctanoyl-lecithin [12]: 2600 µequiv. min⁻¹ mg⁻¹
Vmax micellar L-dioctanoyl-lecithin [13]: 2200 µequiv. min⁻¹ mg⁻¹
